Measurements as given in PMC6934184, “Selective DNA-PKcs inhibition extends the therapeutic index of localized radiotherapy and chemotherapy” (The Journal of Clinical Investigation, 2019).

Target: T1, KIT (Homo sapiens, UniProt P10721)
T1 construct: purchased Thermo Fisher Scientific (Life Technologies) SelectScreen
Experiment: SelectScreen Z'LYTE
Assay type: biochemical
Summary of the method: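 NU5455 was profiled across the SelectScreen Broad panel of kinase activity and binding assays. Z'LYTE reactions such as CSF1R ran at apparent Km ATP, while the Adapta CAMK1 assay used ATP listed as 10. Values are given as percent.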

T1 sequence (P10721 26-976): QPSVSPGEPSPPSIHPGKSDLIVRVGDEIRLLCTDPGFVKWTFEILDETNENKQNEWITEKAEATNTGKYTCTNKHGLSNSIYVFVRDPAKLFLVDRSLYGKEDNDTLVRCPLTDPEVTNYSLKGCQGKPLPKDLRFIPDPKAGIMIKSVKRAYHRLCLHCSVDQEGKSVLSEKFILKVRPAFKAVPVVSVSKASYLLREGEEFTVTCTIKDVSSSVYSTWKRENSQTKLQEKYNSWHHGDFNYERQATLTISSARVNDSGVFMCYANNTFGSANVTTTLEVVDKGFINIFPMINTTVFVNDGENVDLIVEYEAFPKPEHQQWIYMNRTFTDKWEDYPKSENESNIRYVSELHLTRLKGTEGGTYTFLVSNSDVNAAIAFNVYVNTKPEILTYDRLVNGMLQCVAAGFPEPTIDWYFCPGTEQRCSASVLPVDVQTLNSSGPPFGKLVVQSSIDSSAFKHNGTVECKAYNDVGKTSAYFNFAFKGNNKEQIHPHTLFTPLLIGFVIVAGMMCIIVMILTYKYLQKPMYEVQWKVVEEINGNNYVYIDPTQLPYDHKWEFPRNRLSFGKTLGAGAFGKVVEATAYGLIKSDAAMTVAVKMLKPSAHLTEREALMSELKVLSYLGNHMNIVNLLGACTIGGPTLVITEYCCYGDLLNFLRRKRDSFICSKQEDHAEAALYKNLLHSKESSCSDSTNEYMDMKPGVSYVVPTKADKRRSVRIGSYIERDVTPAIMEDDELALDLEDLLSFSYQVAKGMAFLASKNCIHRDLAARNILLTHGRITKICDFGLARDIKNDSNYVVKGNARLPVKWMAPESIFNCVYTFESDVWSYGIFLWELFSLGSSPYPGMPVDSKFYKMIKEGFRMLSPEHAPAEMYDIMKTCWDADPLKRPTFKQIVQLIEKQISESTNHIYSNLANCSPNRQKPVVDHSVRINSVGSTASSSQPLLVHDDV

Structure (SMILES): CN(C(=O)CN1CCOCC1)c1ccc2sc3c(-c4cccc5c(=O)cc(N6CC7CCC(C6)O7)oc45)cccc3c2c1 [NU5455]
- inhibition at 1 µM: 5.3%
